These are literature values, as cited in patent US12662687B2, “Methods and compositions for the production of xylitol from xylose utilizing dynamic metabolic control” (Duke University, priority 2020, dated 2026).

Each structure is given as a SMILES string.

In general, Ki refers to the dissociation constant of the complex between target and ligand, obtained from inhibition or displacement.

The data set deals with membrane bound transhydrogenase encoded by the pntAB genes (Escherichia coli, UniProt P07001+P0AB67). Conditions: competitive inhibitor, reported value.
membrane bound transhydrogenase encoded by the pntAB genes, sequence (P07001 whole entry): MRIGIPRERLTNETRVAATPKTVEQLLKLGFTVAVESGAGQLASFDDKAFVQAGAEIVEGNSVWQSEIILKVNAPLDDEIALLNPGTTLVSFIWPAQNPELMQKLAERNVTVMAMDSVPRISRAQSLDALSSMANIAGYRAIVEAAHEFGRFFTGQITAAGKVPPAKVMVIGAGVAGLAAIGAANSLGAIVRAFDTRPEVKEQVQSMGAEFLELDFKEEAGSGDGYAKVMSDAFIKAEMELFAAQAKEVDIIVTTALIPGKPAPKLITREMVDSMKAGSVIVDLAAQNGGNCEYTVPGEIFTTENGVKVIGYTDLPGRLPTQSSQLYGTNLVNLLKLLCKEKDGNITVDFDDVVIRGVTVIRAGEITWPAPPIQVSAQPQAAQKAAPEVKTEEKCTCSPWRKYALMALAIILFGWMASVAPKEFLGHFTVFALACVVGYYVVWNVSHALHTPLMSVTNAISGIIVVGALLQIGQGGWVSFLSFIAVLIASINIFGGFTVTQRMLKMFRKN
membrane bound transhydrogenase encoded by the pntAB genes, sequence (P0AB67 whole entry): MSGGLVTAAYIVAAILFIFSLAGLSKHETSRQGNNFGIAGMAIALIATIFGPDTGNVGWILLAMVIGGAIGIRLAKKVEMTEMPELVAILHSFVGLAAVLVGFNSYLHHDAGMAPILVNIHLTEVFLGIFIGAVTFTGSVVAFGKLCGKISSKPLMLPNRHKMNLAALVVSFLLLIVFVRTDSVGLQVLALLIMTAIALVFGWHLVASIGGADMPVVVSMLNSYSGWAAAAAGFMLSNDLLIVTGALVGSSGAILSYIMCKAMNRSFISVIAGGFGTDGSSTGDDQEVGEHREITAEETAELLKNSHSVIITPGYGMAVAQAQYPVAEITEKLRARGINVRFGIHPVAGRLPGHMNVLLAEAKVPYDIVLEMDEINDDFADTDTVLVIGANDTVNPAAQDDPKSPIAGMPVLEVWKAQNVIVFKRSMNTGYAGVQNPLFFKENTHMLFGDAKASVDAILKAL

Regarding `CCCCCCCCCCCCCCCC(=O)SCCNC(=O)CCNC(=O)[C@H](O)C(C)(C)COP(=O)(O)OP(=O)(O)OC[C@H]1O[C@@H](n2cnc3c(N)ncnc32)[C@H](O)[C@@H]1OP(=O)(O)O` [Palmitoyl-CoA], the Ki is 1000 to 5000 nM.
